From PubChem BioAssay AID270 (DTP/NCI, 2004)
Where “and” joins values, the source holds several entries; their conditions need not be identical. Equal values may be shown once. Records with an inconclusive call do not appear.

Test system: BDF1 mice, s.c. Lewis lung carcinoma, T/C %
Experiment: NCI In Vivo Anticancer Drug Screen. Data for tumor model Lewis Lung Carcinoma (subcutaneous) in B6D2F1 (BDF1) mice
Description: The antitumor activity of compounds was measured in mice bearing transplantable tumors. Survival or tumor size were measured and the results are expressed as the measurement made in the treated group (T) divided by the measurement made in the vehicle treated control group (C). The tumor model used in this assay is Lewis Lung Carcinoma (subcutaneous) in B6D2F1 (BDF1) mice

[1] = endpoint: median survival time, dose: 6.25 mg/kg/injection, schedule: Q01DX009 (ip), vehicle: Klucel (hydroxypropylcellulose) (HPC), higher = longer survival

NC(=S)N/N=C/c1nccc2ccccc12
T/C (endpoint: mean tumor weight, dose: 12.5 mg/kg/injection, schedule: Q01DX011 (ip), vehicle: carboxymethylcellulose (CMC), higher = larger tumour): 103 % of control
T/C (endpoint: mean tumor weight, dose: 25.0 mg/kg/injection, schedule: Q01DX011 (ip), vehicle: carboxymethylcellulose (CMC), higher = larger tumour): 48 % of control
T/C (endpoint: mean tumor weight, dose: 26.0 mg/kg/injection, schedule: Q01DX011 (ip), vehicle: saline, higher = larger tumour): 64 % of control
T/C (endpoint: mean tumor weight, dose: 33.5 mg/kg/injection, schedule: Q01DX011 (ip), vehicle: carboxymethylcellulose (CMC), higher = larger tumour): 56 % of control
T/C (endpoint: mean tumor weight, dose: 38.0 mg/kg/injection, schedule: Q01DX011 (ip), vehicle: saline, higher = larger tumour): 16 % of control
T/C (endpoint: mean tumor weight, dose: 40.0 mg/kg/injection, schedule: Q01DX011 (oral), vehicle: saline, higher = larger tumour): 42 % of control
T/C (endpoint: mean tumor weight, dose: 56.0 mg/kg/injection, schedule: Q01DX011 (ip), vehicle: saline, higher = larger tumour): 3 % of control
T/C (endpoint: median survival time, dose: 9.4 mg/kg/injection, schedule: Q01DX009 (ip), vehicle: saline with Tween-80, higher = longer survival): 124 % of control
T/C (endpoint: median survival time, dose: 18.8 mg/kg/injection, schedule: Q01DX009 (ip), vehicle: saline with Tween-80, higher = longer survival): 98 % of control and 108 % of control
T/C (endpoint: median survival time, dose: 37.5 mg/kg/injection, schedule: Q01DX009 (ip), vehicle: saline with Tween-80, higher = longer survival): 98 % of control

O=NN(CCCl)C(=O)NC1CCC(O)CC1 (stereo unspecified)
T/C (endpoint: median survival time, dose: 10.0 mg/kg/injection, schedule: Q01DX001 (ip), vehicle: Klucel (hydroxypropylcellulose) (HPC), higher = longer survival): 104 % of control
T/C (endpoint: median survival time, dose: 10.0 mg/kg/injection, schedule: Q01DX001 (ip), vehicle: other, higher = longer survival): 112 % of control and 119 % of control
T/C (endpoint: median survival time, dose: 20.0 mg/kg/injection, schedule: Q01DX001 (ip), vehicle: Klucel (hydroxypropylcellulose) (HPC), higher = longer survival): 105 % of control
T/C (endpoint: median survival time, dose: 20.0 mg/kg/injection, schedule: Q01DX001 (ip), vehicle: other, higher = longer survival): 105 % of control
T/C (endpoint: median survival time, dose: 40.0 mg/kg/injection, schedule: Q01DX001 (ip), vehicle: Klucel (hydroxypropylcellulose) (HPC), higher = longer survival): 186 % of control
T/C (endpoint: median survival time, dose: 40.0 mg/kg/injection, schedule: Q01DX001 (ip), vehicle: other, higher = longer survival): 202 % of control
T/C (endpoint: median survival time, dose: 80.0 mg/kg/injection, schedule: Q01DX001 (ip), vehicle: Klucel (hydroxypropylcellulose) (HPC), higher = longer survival): 108 % of control

CN(/N=N/N(C)c1ccccc1)c1ccccc1
T/C (endpoint: mean tumor weight, dose: 15.6 mg/kg/injection, schedule: Q01DX011 (ip), vehicle: carboxymethylcellulose (CMC), higher = larger tumour): 77 % of control
T/C (endpoint: mean tumor weight, dose: 31.3 mg/kg/injection, schedule: Q01DX011 (ip), vehicle: carboxymethylcellulose (CMC), higher = larger tumour): 66 % of control
T/C (endpoint: mean tumor weight, dose: 62.5 mg/kg/injection, schedule: Q01DX011 (ip), vehicle: carboxymethylcellulose (CMC), higher = larger tumour): 52 % of control
T/C (endpoint: mean tumor weight, dose: 125.0 mg/kg/injection, schedule: Q01DX011 (ip), vehicle: carboxymethylcellulose (CMC), higher = larger tumour): 48 % of control

Cc1cn(C2OC(CO)C(O)C2O)c(=O)[nH]c1=O (stereo unspecified)
T/C (endpoint: mean tumor weight, dose: 62.5 mg/kg/injection, schedule: Q01DX011 (ip), vehicle: saline, higher = larger tumour): 94 % of control
T/C (endpoint: mean tumor weight, dose: 500.0 mg/kg/injection, schedule: Q01DX011 (ip), vehicle: saline, higher = larger tumour): 109 % of control

Nc1nncs1
T/C [1]: 117 % of control and 122 % of control

CO/[N+]([O-])=C\C(=O)N/C=C/C(=O)O
T/C (endpoint: mean tumor weight, dose: 22.0 mg/kg/injection, schedule: Q01DX011 (ip), vehicle: carboxymethylcellulose (CMC), higher = larger tumour): 80 % of control
T/C (endpoint: mean tumor weight, dose: 33.0 mg/kg/injection, schedule: Q01DX011 (ip), vehicle: carboxymethylcellulose (CMC), higher = larger tumour): 57 % of control

CN(N=O)C(=O)NC1CCOCC1
T/C (endpoint: median survival time, dose: 475.0 mg/kg/injection, schedule: Q01DX001 (ip), vehicle: saline with Tween-80, higher = longer survival): 108 % of control

CCC(c1ccc(OC(=O)Cc2ccc(N(CCCl)CCCl)cc2)cc1)C(CC)c1ccc(OC(=O)Cc2ccc(N(CCCl)CCCl)cc2)cc1 (stereo unspecified)
T/C [1]: 102 % of control
T/C (endpoint: median survival time, dose: 12.5 mg/kg/injection, schedule: Q01DX009 (ip), vehicle: Klucel (hydroxypropylcellulose) (HPC), higher = longer survival): 104 % of control
T/C (endpoint: median survival time, dose: 25.0 mg/kg/injection, schedule: Q01DX009 (ip), vehicle: Klucel (hydroxypropylcellulose) (HPC), higher = longer survival): 104 % of control
T/C (endpoint: median survival time, dose: 25.0 mg/kg/injection, schedule: Q02DX009 (ip), vehicle: saline with Tween-80, higher = longer survival): 86 % of control
T/C (endpoint: median survival time, dose: 50.0 mg/kg/injection, schedule: Q02DX009 (ip), vehicle: saline with Tween-80, higher = longer survival): 88 % of control
T/C (endpoint: median survival time, dose: 100.0 mg/kg/injection, schedule: Q02DX009 (ip), vehicle: saline with Tween-80, higher = longer survival): 94 % of control

O=S1(=O)CCCO1
T/C (endpoint: mean tumor weight, dose: 10.0 mg/kg/injection, schedule: Q01DX011 (ip), vehicle: saline, higher = larger tumour): 109 % of control
T/C (endpoint: mean tumor weight, dose: 20.0 mg/kg/injection, schedule: Q01DX011 (ip), vehicle: saline, higher = larger tumour): 102 % of control
T/C (endpoint: mean tumor weight, dose: 40.0 mg/kg/injection, schedule: Q01DX011 (ip), vehicle: saline, higher = larger tumour): 78 % of control

CCOC(=O)[C@H]1CCC[C@@H](NC(=O)N(CCCl)N=O)C1
T/C (endpoint: median tumor weight (est.), dose: 20.0 mg/kg/injection, schedule: Q01DX001 (ip), vehicle: gum acacia, higher = larger tumour): 55 % of control
T/C (endpoint: median tumor weight (est.), dose: 30.0 mg/kg/injection, schedule: Q01DX001 (ip), vehicle: gum acacia, higher = larger tumour): 34 % of control

COC1OC(CNC(=O)N(C)N=O)C(O)C(O)C1O (stereo unspecified)
T/C (endpoint: median survival time, dose: 50.0 mg/kg/injection, schedule: Q01DX009 (ip), vehicle: saline, higher = longer survival): 102 % of control
T/C (endpoint: median survival time, dose: 100.0 mg/kg/injection, schedule: Q01DX009 (ip), vehicle: saline, higher = longer survival): 112 % of control
T/C (endpoint: median survival time, dose: 200.0 mg/kg/injection, schedule: Q01DX009 (ip), vehicle: saline, higher = longer survival): 97 % of control
